# Legend:
# [1] = test system: Rattus norvegicus; assay: Retention time in Scopolamine induced avoidance test (performed in rat) for antagonistic activity after peroral administration of 1.25 mg/kg; type: functional, organism-based; set-up: dose 1.25 mg/kg
# [2] = test system: Rattus norvegicus; assay: Acquisition time in Scopolamine induced avoidance test (performed in rat) for antagonistic activity after peroral administration of 1.25 mg/kg; type: functional; conditions: route oral
# [3] = test system: Rattus norvegicus; assay: Retention time in Scopolamine induced avoidance test (performed in rat) for antagonistic activity after peroral administration of 80 mg/kg; type: functional, organism-based; set-up: dose 80 mg/kg
# [4] = test system: Mus musculus; assay: Tested for locomotor activity after oral administration of 10 mg/kg for 120 min; type: functional
# [5] = test system: Mus musculus; assay: Tested for locomotor activity after oral administration of 40 mg/kg for 120 min; type: functional
# [6] = test system: Mus musculus; assay: Tested for locomotor activity after oral administration of […] for 120 min; type: functional
# [7] = test system: Rattus norvegicus; assay: Retention time in Scopolamine induced avoidance test (performed in rat) for antagonistic activity after p.o. administration of 0.31 mg/kg; type: functional, organism-based; set-up: dose 0.31 mg/kg
# [8] = test system: Rattus norvegicus; assay: Acquisition time in Scopolamine induced avoidance test (performed in rat) for antagonistic activity after p.o. administration of 5 mg/kg; type: functional; conditions: route oral
# [9] = test system: Rattus norvegicus; assay: Acquisition time in Scopolamine induced avoidance test (performed in rat) for antagonistic activity after p.o. administration of 0.31 mg/kg; type: functional; conditions: route oral
# [10] = test system: Rattus norvegicus; assay: Retention time in Scopolamine induced avoidance test (performed in rat) for antagonistic activity after peroral administration of 5 mg/kg; type: functional, organism-based; set-up: dose 5 mg/kg
# [11] = test system: Rattus norvegicus; assay: Acquisition time in Scopolamine induced avoidance test (performed in rat) for antagonistic activity after peroral administration of 20 mg/kg; type: functional; conditions: route oral
# [12] = test system: Rattus norvegicus; assay: Acquisition time in Scopolamine induced avoidance test (performed in rat) for antagonistic activity after peroral administration of 80 mg/kg; type: functional; conditions: route oral
# [13] = test system: Mus musculus; assay: Acquisition time in (R)-PIA) induced avoidance test (performed in mice) for antagonistic activity after p.o. administration of 0.31 mg/kg; type: functional; conditions: route oral
# [14] = test system: Mus musculus; assay: Retention time in (R)-PIA) induced avoidance test (performed in mice) for antagonistic activity after peroral administration of 5 mg/kg; type: functional, organism-based; set-up: dose 5 mg/kg
# [15] = test system: Mus musculus; assay: Retention time in (R)-PIA) induced avoidance test (performed in mice) for antagonistic activity after peroral administration of 20 mg/kg; type: functional, organism-based; set-up: dose 20 mg/kg
# [16] = test system: Rattus norvegicus; assay: Retention time in Scopolamine induced avoidance test (performed in […]) for antagonistic activity after peroral administration of 5 mg/kg; type: functional, organism-based; set-up: dose 5 mg/kg
# [17] = test system: Mus musculus; assay: Retention time in (R)-PIA) induced avoidance test (performed in mice) for antagonistic activity after peroral administration of 0.31 mg/kg; type: functional, organism-based; set-up: dose 0.31 mg/kg
# [18] = test system: Mus musculus; assay: Acquisition time in (R)-PIA) induced avoidance test (performed in mice) for antagonistic activity after peroral administration of 20 mg/kg; type: functional; conditions: route oral
# [19] = test system: Rattus norvegicus; assay: Retention time in Scopolamine induced avoidance test (performed in rat) for antagonistic activity after p.o. administration of 0.08 mg/kg; type: functional, organism-based; set-up: dose 0.08 mg/kg
# [20] = test system: Mus musculus; assay: Acquisition time in (R)-PIA) induced avoidance test (performed in mice) for antagonistic activity after p.o. administration of 1.25 mg/kg; type: functional; conditions: route oral
# [21] = test system: Mus musculus; assay: Acquisition time in (R)-PIA) induced avoidance test (performed in mice) for antagonistic activity after peroral administration of 5 mg/kg; type: functional; conditions: route oral
# [22] = test system: Rattus norvegicus; assay: Retention time in Scopolamine induced avoidance test (performed in rat) for antagonistic activity after peroral administration of 20 mg/kg (n=9); type: functional, organism-based; set-up: dose 20 mg/kg
# [23] = test system: Mus musculus; assay: Retention time in (R)-PIA) induced avoidance test (performed in mice) for antagonistic activity after p.o. administration of 1.25 mg/kg; type: functional, organism-based; set-up: dose 1.25 mg/kg
# [24] = test system: Rattus norvegicus; assay: Acquisition time in Scopolamine induced avoidance test (performed in rat) for antagonistic activity after p.o. administration of 0.08 mg/kg; type: functional; conditions: route oral
# [25] = test system: Mus musculus; assay: Acquisition time in (R)-PIA) induced avoidance test (performed in mice) for antagonistic activity after peroral administration of 0.08 mg/kg; type: functional; conditions: route oral
# [26] = target: Adenosine A2 receptor (Homo sapiens, UniProt P29275+P29274); assay: Binding affinity towards Adenosine A2 receptor of human platelets with [125I]-N6-aminobenzyladenosine
# [27] = test system: Rattus norvegicus; assay: Retention time in Scopolamine induced avoidance test (performed in rat) for antagonistic activity after peroral administration of 20 mg/kg; type: functional, organism-based; set-up: dose 20 mg/kg
# [28] = target: T1, Adenosine receptor A1 (Bos taurus) (UniProt P28190); assay: Binding affinity for Adenosine A1 receptor of bovine brain at 10e-5 M with [125I]-N6-aminobenzyladenosine
# T1 sequence (whole entry): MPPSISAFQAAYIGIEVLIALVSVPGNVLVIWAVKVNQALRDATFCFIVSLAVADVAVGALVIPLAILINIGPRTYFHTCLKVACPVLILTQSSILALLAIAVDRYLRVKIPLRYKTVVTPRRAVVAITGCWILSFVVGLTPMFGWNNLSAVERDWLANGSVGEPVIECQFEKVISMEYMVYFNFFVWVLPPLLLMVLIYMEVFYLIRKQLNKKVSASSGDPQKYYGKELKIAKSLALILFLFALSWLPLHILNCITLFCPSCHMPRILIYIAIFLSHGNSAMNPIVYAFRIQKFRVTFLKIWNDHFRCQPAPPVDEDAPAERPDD
# [29] = test system: Mus musculus; assay: Acquisition time in (R)-PIA) induced avoidance test (performed in mice) for antagonistic activity after peroral administration of 0.02 mg/kg; conditions: route oral
# [30] = test system: Mus musculus; assay: Retention time in (R)-PIA) induced avoidance test (performed in mice) for antagonistic activity after peroral administration of 0.02 mg/kg
# [31] = test system: Mus musculus; assay: Retention time in (R)-PIA) induced avoidance test (performed in mice) for antagonistic activity after peroral administration of 0.08 mg/kg; type: functional, organism-based; set-up: dose 0.08 mg/kg
SMILES,Retention time [1] [s],Acquisition time [2] [s],Retention time [7] [s],Acquisition time [8] [s],Acquisition time [9] [s],Acquisition time [11] [s],Acquisition time [13] [s],Retention time [14] [s],Retention time [15] [s],Retention time [16] [s],Retention time [17] [s],Acquisition time [18] [s],Retention time [19] [s],Acquisition time [20] [s],Acquisition time [21] [s],Retention time [23] [s],Acquisition time [24] [s],other results
Cn1c(=O)c2c(ncn2C)n(C)c1=O [CAFFEINE],11.9,14.6,14.9,11.5,18.3,33.8,–,–,–,–,–,–,–,–,–,–,–,Retention time [3]: 7.6 s; Locomotor activity [4]: 9386 Counts; Locomotor activity [5]: 9693 Counts; Locomotor activity [6]: 6413 Counts; Retention time [10]: 12.5 s; Acquisition time [12]: 29.6 s
CCCn1c(=O)c2c(nc(/C=C/c3ccc(OC)c(OC)c3)n2C)n(CCC)c1=O,20.3,10.1,12.9,24.4,11.8,22.2,22.7,37.5,92.4,4.9,42.4,31.2,31.1,25.3,19.8,65.3,14.9,Retention time [22]: 15.6 s
CCCn1c(=O)c2nc(C3CCCC3)[nH]c2n(CCc2ccc(NC(C)=O)cc2)c1=O,170,12.6,130,15.9,15.5,13.8,18.9,47.5,32.2,187,38.7,20.5,175,18.8,27.8,20,15.4,Acquisition time [25]: 23.9 s; Ki [26]: > 100 µM; Retention time [27]: 116 s; inhibition [28]: 66%; Acquisition time [29]: 12.2 s; Retention time [30]: 137 s; Retention time [31]: 75.4 s

# From ChEMBL document CHEMBL1126778, “Adenosine A1 antagonists. 3. Structure-activity relationships on amelioration against scopolamine- or N6-((R)-phenylisopropyl)adenosine-induced cognitive disturbance” (J Med Chem, 1993)
